Values of other authors in PMC8554823 (ACS Central Science, 2021).

Biological target: human granzyme B (Homo sapiens, UniProt P10144)
Details: previously reported value for IEPD alone

Sequence of human granzyme B (P10144 21-247): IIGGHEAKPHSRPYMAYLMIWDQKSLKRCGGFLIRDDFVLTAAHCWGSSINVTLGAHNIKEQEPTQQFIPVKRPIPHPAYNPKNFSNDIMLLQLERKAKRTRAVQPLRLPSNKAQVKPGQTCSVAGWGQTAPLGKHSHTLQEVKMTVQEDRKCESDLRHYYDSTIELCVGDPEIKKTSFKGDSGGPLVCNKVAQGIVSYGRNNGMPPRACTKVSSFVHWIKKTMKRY

- catalytic efficiency (kcat/Km): ~3300 M^–1 s^–1
Substance: IEPD
